Paper PMC11481871, “Discovery of GuaB inhibitors with efficacy against Acinetobacter baumannii infection” (mBio, 2024)
In brackets after ≈: the same amount, converted by molar mass. Read-outs that look alike come from different tables or passages of the source.

Columns and labels:
hERG = target: T1, hERG (Homo sapiens, UniProt Q12809); assay: hERG 2-point automatic patch clamp assay; format: cell-based
T1 construct: expressed in transfected cells; host or cells: HEK293
Procedure: All chemicals used in solution preparation were purchased from Sigma-Aldrich (St. Louis, MO) unless otherwise noted. Test article and positive control concentrations were prepared fresh daily by diluting stock solutions into a HEPES-buffered physiological saline solution (composition in mM): NaCl, 137; KCl, 4.0; CaCl2, 1.8; MgCl2, 1; HEPES, 10; glucose, 10; pH adjusted to 7.4 with NaOH. HEK293 cells were stably transfected with hERG cDNA and maintained in the culture medium with the appropriate selection pressure and antibiotics. All experiments were performed at room temperature. […]
In preparation for a recording session, intracellular solution was loaded into the intracellular compartments of the QPlate and cell suspension was pipetted into the extracellular compartments. After establishment of a whole-cell configuration, membrane currents were recorded using up to 48 parallel patch clamp amplifiers in the QPatch HT system. The current records were sampled at 2,000 Hz and low-pass Bessel filtered at 400 Hz. Onset and block of hERG current were measured using a stimulus voltage pattern consisting of a 500 ms prepulse to –40 mV (leakage subtraction), a 2-s activating pulse to +40 mV, followed by a 2-s test pulse to −40 mV. The pulse pattern was repeated continuously at 10-s intervals, from a holding potential of −80 mV. Peak tail current (upper panel) was measured during the −40 mV test pulse. Leakage current was calculated from the current amplitude evoked by the prepulse and subtracted from the total membrane current record. Data acquisition and analysis was performed using the QPatch Assay Software (Sophion Bioscience A/S, Denmark). Solubility of all compounds was measured using TurboSol in conjunction with the ion channel testing.

[1] = In vivo pharmacokinetic study, 24-h i.v. infusion; set-up: species or system mouse; settings: mice; for AUC(0-t): female, CD-1, mouse, whole blood, iv, read-out: exposure AUC0-24
Procedure: Two female CD-1 mice were given a 750 mg/kg of 24 h i.v. infusion dose of G2. […] Two female CD-1 mice were given a 250 mg/kg of 24-h i.v. infusion dose of G1. Another group of two mice received 250 mg/kg of 24-h i.v. infusion dose of G1 with a 150 mg/kg ABT PO dose of pretreatment at 2 h prior the i.v. infusion. Ten microliters of blood was collected accurately at 0.5, 1, 2, 4, 6, 8, and 24 h after infusion start. Blood samples were then immediately placed into labeled polypropylene micro-centrifuge tubes containing 40 µL of 1.7 mg/mL potassium (K2) EDTA in water, mixed, and then frozen and stored at −70°C until bio-analysis.
G2, G1, ABT, and 4-MP blood concentrations in mouse PK studies were determined by LC-MS/MS. All samples were prepared by protein precipitation. Chromatographic separations were achieved using an ACQUITY CM UPLC system (Waters, Milford, MA) including an ACQUITY BSM solvent delivery system, an ACQUITY SM autosampler, and an ACQUITY CM column oven. For G1, G2, and ABT, an ACQUITY UPLC HSS T3 column (2.1 × 50 mm, 1.8 µm) was used. For 4-MP, an ACQUITY UPLC BEH Amide column (2.1 × 50 mm, 1.7 µm) was used. Gradient elution that contained 0.1% formic acid in water and 0.1% formic acid in acetonitrile was used for G1, ABT, and 4-MP. Gradient elution that contained 0.1% formic acid with 2 mM ammonium formate in water/acetonitrile (vol/vol, 95:5) was used for G2. The LC flow rate was 0.6 mL/min for G1, G2, and ABT, and 0.5 mL/min for 4-MP. The sample injection volume was 1 µL for ABT, G1, and G2, and 2 µL for 4-MP. A QTrap 5500/6500 tandem mass spectrometer (SCIEX, Foster City, CA) with TurboIonSpray interface was operated in positive ionization mode with multiple reaction monitoring (MRM) for LC-MS/MS analysis. The mass spectrometer was operated at unit mass resolution for both Q1 and Q3 quadrupoles. The precursor to product ion transitions of analytes are presented as Q1/Q3 ratios for each compound: 4-MP (83.0/56.1), G1 (383.1/197.1), G2 (399.1/171.0), and ABT (135.0/80.1). The standard curves cover the ranges of 0.005 µg/mL–11.7 µg/mL, 0.005 µg/mL–33.4 µg/mL, 0.05 µg/mL–334 µg/mL, and 1.37 µg/mL–334 µg/mL for G1, G2, ABT, and 4-MP, respectively.

A. baumannii 19606 [2] = assay: Neutropenic thigh infection model with i.v. GuaBi; settings: for bacterial load in thigh muscle: neutropenic CD-1 mice, A. baumannii 19606, i.v. infusion with PK boosters, 24 h, high dose groups; for free drug over serum-free MIC at which bactericidal: neutropenic thigh model, A. baumannii
A. baumannii 19606 [3] = assay: Fluctuation assay, frequency of spontaneous resistance; format: cell-based, Acinetobacter baumannii; settings: for frequency of on-target resistance mutations: A. baumannii, 4× or 8× MIC, p0 method; for F.O.R.: P0 method
[4] = test system: carbapenem-resistant A. baumannii clinical isolates; assay: microbe, parasite or virus in culture; format: cell-based; settings: Acinetobacter baumannii

T1 sequence (Q12809 whole entry): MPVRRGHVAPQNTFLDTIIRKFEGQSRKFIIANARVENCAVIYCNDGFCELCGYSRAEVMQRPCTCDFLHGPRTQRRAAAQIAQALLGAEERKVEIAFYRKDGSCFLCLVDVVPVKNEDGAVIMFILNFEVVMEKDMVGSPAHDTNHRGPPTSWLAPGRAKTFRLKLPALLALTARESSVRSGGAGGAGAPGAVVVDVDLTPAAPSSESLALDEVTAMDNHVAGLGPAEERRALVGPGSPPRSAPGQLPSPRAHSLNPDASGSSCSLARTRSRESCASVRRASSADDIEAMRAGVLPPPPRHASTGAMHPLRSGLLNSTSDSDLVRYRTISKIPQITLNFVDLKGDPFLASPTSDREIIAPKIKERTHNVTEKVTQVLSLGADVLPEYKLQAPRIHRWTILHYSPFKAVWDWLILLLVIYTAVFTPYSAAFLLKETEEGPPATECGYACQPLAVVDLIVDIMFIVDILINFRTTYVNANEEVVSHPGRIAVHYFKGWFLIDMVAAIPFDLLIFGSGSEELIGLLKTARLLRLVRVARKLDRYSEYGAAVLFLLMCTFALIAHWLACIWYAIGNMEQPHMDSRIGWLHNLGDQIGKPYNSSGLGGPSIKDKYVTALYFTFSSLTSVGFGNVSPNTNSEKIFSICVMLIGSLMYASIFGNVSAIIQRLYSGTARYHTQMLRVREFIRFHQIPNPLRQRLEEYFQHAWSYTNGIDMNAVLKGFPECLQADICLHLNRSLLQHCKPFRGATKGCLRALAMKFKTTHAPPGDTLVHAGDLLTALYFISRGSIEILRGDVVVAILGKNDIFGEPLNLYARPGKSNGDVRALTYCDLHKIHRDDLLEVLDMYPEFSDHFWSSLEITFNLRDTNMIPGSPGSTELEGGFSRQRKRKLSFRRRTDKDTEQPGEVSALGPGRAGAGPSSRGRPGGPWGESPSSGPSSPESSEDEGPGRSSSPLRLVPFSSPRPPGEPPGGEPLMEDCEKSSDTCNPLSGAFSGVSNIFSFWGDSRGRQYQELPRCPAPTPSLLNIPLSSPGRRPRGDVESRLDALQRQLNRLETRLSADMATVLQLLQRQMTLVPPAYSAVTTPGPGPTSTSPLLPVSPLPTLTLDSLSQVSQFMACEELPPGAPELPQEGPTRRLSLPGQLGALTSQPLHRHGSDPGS

Structure (SMILES)	hERG 10µM (hERG) [%]	hERG 50µM (hERG)	hERG 1µM (hERG) [%]	AUC(0-t) ([1]; 24-h i.v. infusion 250 mg/kg, co-administered 150 mg/kg ABT) [µM·h]	exposure higher than without co-administration with ABT ([1]; 250 mg/kg 24-h i.v. infusion)	bacterial load in thigh muscle (A. baumannii 19606 [2])	free drug over serum-free MIC at which bactericidal (A. baumannii 19606 [2])	frequency of on-target resistance mutations (A. baumannii 19606 [3])	MIC50 [4] [µM]	MIC90 [4] [µM]	AUC(0-t) ([1]; 24-h i.v. infusion 750 mg/kg, co-administered 150 mg/kg ABT and 100 mg/kg 4-MP) [µM·h]	exposure higher than without co-administration with ABT and 4-MP ([1]; 750 mg/kg 24-h i.v. infusion) [fold]	F.O.R. (A. baumannii 19606 [3]; selection 4xMIC (G1 3.1µM; G2 6.4µM))	F.O.R. (A. baumannii 19606 [3]; selection 8xMIC (12.8µM))
C[C@@H](Oc1ccc2ncc3c(c2c1)CCOC3)c1cncc(-c2nc(Cl)c[nH]2)c1 [G8, (R)-9-[1-[5-(4-chloro-1H-imidazol-2-yl)-3-pyridyl]ethoxy]-2,4-dihydro-1H-pyrano[3,4 c]quinoline]	6.3	50.1%												
C[C@H](Nc1ccc2ncc3c(c2c1)CCOC3)C(=O)Nc1ccc(Cl)nc1 [G1, (2S)-N-(6-chloro-3-pyridyl)-2-(2,4-dihydro-1H-pyrano[3,4-c]quinolin-9 ylamino)propanamide]	37.20		2.80	692	fourfold	reduced the bacterial load in thigh muscle compared to pre-treatment	above 2 × Fu/MIC	6.4 × 10^−11 to 2.9 × 10^−10	3.1 (≈ 1.19 µg/mL)	8 (≈ 3.06 µg/mL)				
C[C@H](Nc1ccc2ncc(CO)cc2c1)C(=O)Nc1ccc(Cl)c(N(C)C)c1 [G2, (2S)-N-[4-chloro-3-(dimethylamino)phenyl]-2-[[3-(hydroxymethyl)-6-quinolyl]amino]propanamide]	8.60	*48.5%	1.70			reduced the bacterial load in thigh muscle compared to pre-treatment	5 × Fu/MIC	3.6 × 10^−10 to 5.1 × 10^−10	6.25 (≈ 2.49 µg/mL)	16 (≈ 6.38 µg/mL)	21300	100	3.60E-10	5.10E-10
